The target in the assay is human A2A receptor (A2AR) (Homo sapiens, UniProt P29274). Description: Luciferase reporter assay (HEK293-A2AR-luc2p/CRE/Hygro cells, 3 nM CGS21680). The assay is classed as cell-based. The settings on record: 3 nM CGS21680, 5 h incubation. The procedure, abridged: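 Antagonist (0.1–10000 nM) and 3 nM CGS21680 were co-added for 5 h to stable HEK293-A2AR-luc2p/CRE cells, 18 h after seeding in 1% FBS medium containing adenosine deaminase. Luminescence was normalized to agonist alone (100%), and IC50 came from the dose–inhibition curve.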
human A2A receptor (A2AR), sequence (P29274 whole entry): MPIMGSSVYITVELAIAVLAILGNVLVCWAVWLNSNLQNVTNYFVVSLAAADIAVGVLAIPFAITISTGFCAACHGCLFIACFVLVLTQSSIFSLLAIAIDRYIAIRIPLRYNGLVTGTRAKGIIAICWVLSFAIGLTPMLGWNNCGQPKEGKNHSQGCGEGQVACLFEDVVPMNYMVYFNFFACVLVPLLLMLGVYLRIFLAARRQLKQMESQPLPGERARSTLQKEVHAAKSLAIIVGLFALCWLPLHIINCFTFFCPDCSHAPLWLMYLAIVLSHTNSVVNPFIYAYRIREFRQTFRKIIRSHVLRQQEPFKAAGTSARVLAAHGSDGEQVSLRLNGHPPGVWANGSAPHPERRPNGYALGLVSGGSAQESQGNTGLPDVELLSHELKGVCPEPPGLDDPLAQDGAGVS
On the technique in general: Reporter assays use an easily measured gene product as a stand-in for the process of interest.

SMILES strings stand for the structures.

This is an account of results in patent US20210300936A1, “PYRAZOLOTRIAZOLOPYRIMIDINE DERIVATIVES AS A2A RECEPTOR ANTAGONIST” (BEIGENE, LTD., priority 2018, published 2021).

The term IC50 denotes the concentration at which inhibition is half-maximal. A higher IC50 goes with lower potency.

Compound `CN(C)C(=O)c1ccc(N2CCN(C(=O)C(C)(c3ccccc3)n3ncc4c3nc(N)n3nc(-c5ccco5)nc43)CC2)cc1` (centres unmarked) [Compound A104, 4-(4-(2-(5-amino-2-(furan-2-yl)-7H-pyrazolo[4,3-e][1,2,4]triazolo[1,5-c]pyrimidin-7-yl)-2-phenylpropanoyl)piperazin-1-yl)-N,N-dimethylbenzamide] returned an IC50 of 5.5 nM.

Turning to `COCCOc1ccc(N2CCN(C(=O)C(C)(c3cccc(F)c3)n3ncc4c3nc(N)n3nc(-c5ccco5)nc43)CC2)cc1` (centres unmarked) [Compound A86, 2-(5-amino-2-(furan-2-yl)-7H-pyrazolo[4,3-e][1,2,4]triazolo[1,5-c]pyrimidin-7-yl)-2-(3-fluorophenyl)-1-(4-(4-(2-methoxyethoxy)phenyl)piperazin-1-yl)propan-1-one], the IC50 was 6.8 nM.

With `CN(C)CCOc1ccc(N2CCN(C(=O)C(C)(c3ccccc3)n3ncc4c3nc(N)n3nc(-c5ccco5)nc43)CC2)cc1` (centres unmarked) [Compound A71, 2-(5-amino-2-(furan-2-yl)-7H-pyrazolo[4,3-e][1,2,4]triazolo[1,5-c]pyrimidin-7-yl)-1-(4-(4-(2-(dimethylamino)ethoxy)phenyl)piperazin-1-yl)-2-phenylpropan-1-one], the IC50 turned out to be 7.5 nM.

Compound `COCCOc1ccc(N2CCN(C(=O)C(C)(c3ccccc3C)n3ncc4c3nc(N)n3nc(-c5ccco5)nc43)CC2)cc1` (centres unmarked) [Compound A103, 2-(5-amino-2-(furan-2-yl)-7H-pyrazolo[4,3-e][1,2,4]triazolo[1,5-c]pyrimidin-7-yl)-1-(4-(4-(2-methoxyethoxy)phenyl)piperazin-1-yl)-2-(o-tolyl)propan-1-one] registered an IC50 of 1.7 nM.

Consider `COCCOc1ccc(N2CCN(C(=O)C(c3ccccc3)n3ncc4c3nc(N)n3nc(-c5ccco5)nc43)CC2)c(F)c1` (single isomer, unassigned) [Compound A44a], for which the IC50 was determined as 39.2 nM.

Regarding `CO[C@@H]1CCN(C(=O)C(C)(c2ccccc2)n2ncc3c2nc(N)n2nc(-c4ccco4)nc32)C1` (stereo partly drawn) [Compound B30, 2-(5-amino-2-(furan-2-yl)-7H-pyrazolo[4,3-e][1,2,4]triazolo[1,5-c]pyrimidin-7-yl)-1-((R)-3-methoxypyrrolidin-1-yl)-2-phenylpropan-1-one], the IC50 was determined as 97.3 nM. This IC50 is about 2.5-fold higher than that of the compound before.

In turn, `CN1CCN(C(=O)C(C)(c2ccccc2)n2ncc3c2nc(N)n2nc(-c4ccco4)nc32)CC1` (centres unmarked) [Compound B27, 2-(5-amino-2-(furan-2-yl)-7H-pyrazolo[4,3-e][1,2,4]triazolo[1,5-c]pyrimidin-7-yl)-1-(4-methylpiperazin-1-yl)-2-phenylpropan-1-one] gave an IC50 of 30.3 nM.

For `CC(C(=O)N1CCN(c2ccccc2C(=O)NCC2(O)COC2)CC1)(c1ccccc1)n1ncc2c1nc(N)n1nc(-c3ccco3)nc21` (centres unmarked) [Compound A100, 2-(4-(2-(5-amino-2-(furan-2-yl)-7H-pyrazolo[4,3-e][1,2,4]triazolo[1,5-c]pyrimidin-7-yl)-2-phenylpropanoyl)piperazin-1-yl)-N-((3-hydroxyoxetan-3-yl)methyl)benzamide], half-maximal inhibition (IC50) was put at 25 nM. The IC50 values of the last two compounds are within 1.5-fold of each other.

In turn, `COCCOc1ccc(N2CCN(C(=O)C(C3CC3)n3cc4c(nc(N)n5nc(-c6ccco6)nc45)n3)CC2)cc1` (centres unmarked) [Compound C16, 2-(5-amino-2-(furan-2-yl)-8H-pyrazolo[4,3-e][1,2,4]triazolo[1,5-c]pyrimidin-8-yl)-2-cyclopropyl-1-(4-(4-(2-methoxyethoxy)phenyl)piperazin-1-yl)ethan-1-one] registered an IC50 of 4.9 nM.

Turning to `COCCOCCOc1ccc(N2CCN(C(=O)C(C)n3cc4c(nc(N)n5nc(-c6ccco6)nc45)n3)CC2)cc1` (centres unmarked) [Compound C9, 2-(5-amino-2-(furan-2-yl)-8H-pyrazolo[4,3-e][1,2,4]triazolo[1,5-c]pyrimidin-8-yl)-1-(4-(4-(2-(2-methoxyethoxy)ethoxy)phenyl)piperazin-1-yl)propan-1-one], the IC50 was 39.8 nM.

For `CN(C)C(=O)c1ccccc1N1CCN(C(=O)C(C)(c2ccccc2)n2ncc3c2nc(N)n2nc(-c4ccco4)nc32)CC1` (centres unmarked) [Compound A96, 2-(4-(2-(5-amino-2-(furan-2-yl)-7H-pyrazolo[4,3-e][1,2,4]triazolo[1,5-c]pyrimidin-7-yl)-2-phenylpropanoyl)piperazin-1-yl)-N,N-dimethylbenzamide], 13.7 nM corresponded to half-maximal inhibition (IC50).

The compound `Nc1nc2c(cnn2C(C(=O)N2CCc3ccc(OC(F)(F)F)cc3C2)c2ccccc2)c2nc(-c3ccco3)nn12` (centres unmarked) [Compound B6, 2-(5-amino-2-(furan-2-yl)-7H-pyrazolo[4,3-e][1,2,4]triazolo[1,5-c]pyrimidin-7-yl)-2-phenyl-1-(7-(trifluoromethoxy)-3,4-dihydroisoquinolin-2(1H)-yl)ethan-1-one] gave an IC50 of 7 nM.

For `CC(C(=O)N1CCc2ccccc2C1)(c1ccccc1)n1ncc2c1nc(N)n1nc(-c3ccco3)nc21` (centres unmarked) [Compound B18, 2-(5-amino-2-(furan-2-yl)-7H-pyrazolo[4,3-e][1,2,4]triazolo[1,5-c]pyrimidin-7-yl)-1-(3,4-dihydroisoquinolin-2(1H)-yl)-2-phenylpropan-1-one], the IC50 was found to be 111 nM.

In turn, `COCCOc1ccc(N2CCN(C(=O)C(C3CCN(C)CC3)n3ncc4c3nc(N)n3nc(-c5ccco5)nc43)CC2)cc1` (centres unmarked) [Compound A60, 2-(5-amino-2-(furan-2-yl)-7H-pyrazolo[4,3-e][1,2,4]triazolo[1,5-c]pyrimidin-7-yl)-1-(4-(4-(2-methoxyethoxy)phenyl)piperazin-1-yl)-2-(1-methylpiperidin-4-yl)ethan-1-one] displayed an IC50 of more than 10000 nM.

Regarding `COCCOCCOc1ccc(N2CCN(C(=O)C(COC)n3ncc4c3nc(N)n3nc(-c5ccco5)nc43)CC2)cc1` (centres unmarked) [Compound A27, 2-(5-amino-2-(furan-2-yl)-7H-pyrazolo[4,3-e][1,2,4]triazolo[1,5-c]pyrimidin-7-yl)-3-methoxy-1-(4-(4-(2-(2-methoxyethoxy)ethoxy)phenyl)piperazin-1-yl)propan-1-one], 39.4 nM corresponded to half-maximal inhibition (IC50).

`CO[C@H]1CCCN(C(=O)C(C)(c2ccccc2)n2ncc3c2nc(N)n2nc(-c4ccco4)nc32)C1` (stereo partly drawn) [Compound B28, 2-(5-amino-2-(furan-2-yl)-7H-pyrazolo[4,3-e][1,2,4]triazolo[1,5-c]pyrimidin-7-yl)-1-((S)-3-methoxypiperidin-1-yl)-2-phenylpropan-1-one] registered an IC50 of 33.5 nM.

`COCCOc1ccc(N2CCN(C(=O)C(C3CC3)n3cc4c(nc(N)n5nc(-c6ccco6)nc45)n3)CC2)cc1` (single isomer, unassigned) [Compound C16a] yielded an IC50 of 4.1 nM. Compared with the last compound, the IC50 is about 8.2-fold lower.

`C[C@@](C(=O)N1CCN(c2ccc(F)cc2)CC1)(c1ccccc1)n1ncc2c1nc(N)n1nc(-c3ccco3)nc21` [Compound A70a, (S)-2-(5-amino-2-(furan-2-yl)-7H-pyrazolo[4,3-e][1,2,4]triazolo[1,5-c]pyrimidin-7-yl)-1-(4-(4-fluorophenyl)piperazin-1-yl)-2-phenylpropan-1-one] came in with an IC50 of 10.1 nM.

`CC(C(=O)N1CC2(CCOCC2)C1)(c1ccccc1)n1ncc2c1nc(N)n1nc(-c3ccco3)nc21` (centres unmarked) [Compound B26, 2-(5-amino-2-(furan-2-yl)-7H-pyrazolo[4,3-e][1,2,4]triazolo[1,5-c]pyrimidin-7-yl)-2-phenyl-1-(7-oxa-2-azaspiro[3.5]nonan-2-yl)propan-1-one] gave an IC50 of 15.4 nM.

In turn, `CC(C(=O)N1CCN(c2ccc(OCCN3CCOCC3)cc2)CC1)(c1ccccc1)n1ncc2c1nc(N)n1nc(-c3ccco3)nc21` (centres unmarked) [Compound A80, 2-(5-amino-2-(furan-2-yl)-7H-pyrazolo[4,3-e][1,2,4]triazolo[1,5-c]pyrimidin-7-yl)-1-(4-(4-(2-morpholinoethoxy)phenyl)piperazin-1-yl)-2-phenylpropan-1-one] showed an IC50 of 4.3 nM.

On to `CCCC(C(=O)N1CCN(c2ccc(OCCOCCOC)cc2)CC1)n1ncc2c1nc(N)n1nc(-c3ccco3)nc21` (single isomer, unassigned) [Compound A6b, 2-(5-amino-2-(furan-2-yl)-7H-pyrazolo[4,3-e][1,2,4]triazolo[1,5-c]pyrimidin-7-yl)-1-(4-(4-(2-(2-methoxyethoxy)ethoxy)phenyl)piperazin-1-yl)pentan-1-one], for which the concentration for half-maximal inhibition (IC50) came to 135 nM.

On to `CCC(C(=O)N1CCN(c2ccc(OCCOCCOC)cc2)CC1)n1cc2c(nc(N)n3nc(-c4ccco4)nc23)n1` (centres unmarked) [Compound C8, 2-(5-amino-2-(furan-2-yl)-8H-pyrazolo[4,3-e][1,2,4]triazolo[1,5-c]pyrimidin-8-yl)-1-(4-(4-(2-(2-methoxyethoxy)ethoxy)phenyl)piperazin-1-yl)butan-1-one], for which the IC50 was found to be 243 nM.

Turning to `COCCOc1ccc(N2CCN(C(=O)C(C)(c3ccccc3)n3ncc4c3nc(N)n3nc(-c5ccco5)nc43)CC2)c(F)c1F` (centres unmarked) [Compound A67, 2-(5-amino-2-(furan-2-yl)-7H-pyrazolo[4,3-e][1,2,4]triazolo[1,5-c]pyrimidin-7-yl)-1-(4-(2,3-difluoro-4-(2-methoxyethoxy)phenyl)piperazin-1-yl)-2-phenylpropan-1-one], the IC50 came out at 8.9 nM.

With `CCCC(C(=O)N1CCN(c2ccc(F)cc2)CC1)n1ncc2c1nc(N)n1nc(-c3ccco3)nc21` (centres unmarked) [Compound A45, 2-(5-amino-2-(furan-2-yl)-7H-pyrazolo[4,3-e][1,2,4]triazolo[1,5-c]pyrimidin-7-yl)-1-(4-(4-fluorophenyl)piperazin-1-yl)pentan-1-one], the IC50 was found to be 6 nM.

Turning to `CC(C(=O)N1CCN(c2ccccc2F)CC1)(c1ccccc1)n1ncc2c1nc(N)n1nc(-c3ccco3)nc21` (centres unmarked) [Compound A69, 2-(5-amino-2-(furan-2-yl)-7H-pyrazolo[4,3-e][1,2,4]triazolo[1,5-c]pyrimidin-7-yl)-1-(4-(2-fluorophenyl)piperazin-1-yl)-2-phenylpropan-1-one], it took 3.4 nM to reach half-maximal inhibition (IC50).

Compound `CC1(O)CCN(C(=O)C(C)(c2ccccc2)n2ncc3c2nc(N)n2nc(-c4ccco4)nc32)CC1` (centres unmarked) [Compound B25, 2-(5-amino-2-(furan-2-yl)-7H-pyrazolo[4,3-e][1,2,4]triazolo[1,5-c]pyrimidin-7-yl)-1-(4-hydroxy-4-methylpiperidin-1-yl)-2-phenylpropan-1-one] showed an IC50 of 23.7 nM. This IC50 lies about 7-fold higher than the previous one.
